Read-outs that look alike come from different tables or passages of the source.
Tests used:
Assay type in all cases: in vivo
Myzus persicae = assay: whole plant or invertebrate
Excerpt: (§1) If the actual kill rate is greater than that calculated, the kill rate of the combination is superadditive, which means that a synergistic effect is present. In this case, the kill rate actually observed must be greater than the value calculated from the above formula for the expected kill rate (E).
(§2) • 78 parts by weight of acetone • 1.5 parts by weight of dimethylformamide Emulsifier: 0.5 part by weight of alkylaryl polyglycol ether
(§3) To produce an appropriate active ingredient formulation, 1 part by weight of active ingredient is mixed with the stated amounts of solvent and emulsifier, and the concentrate is diluted with emulsifier-containing water to the desired concentration.
After the desired time, the kill in % is determined. 100% means that all aphids have been killed; 0% means that no aphids have been killed. The kill rates determined are entered into Colby's formula.

Phaedon cochleariae = assay: whole plant or invertebrate
Excerpt: (§4) The expected action for a given combination of two active ingredients can be calculated according to S. R. Colby, Weeds 15 (1967), 20-22 as follows:
(§5) • X is the kill rate, expressed in % of the untreated control, in the case of use of active ingredient A in an application rate of m g/ha or in a concentration of m ppm, • Y is the kill rate, expressed in % of the untreated control, in the case of use of active ingredient B in an application rate of n g/ha or in a concentration of n ppm, and • E is the kill rate, expressed in % of the untreated control, in the case of use of active ingredients A and B in application rates of m and n g/ha or in a concentration of m and n ppm, then
as §1, §2, §3
Cabbage leaves (Brassica oleracea) are treated by spraying with the active ingredient formulation of the desired concentration and populated with larvae of the mustard beetle (Phaedon cochleariae) while the leaves are still moist.
After the desired period of time, the kill rate in % is determined. 100% means that all beetle larvae have been killed; 0% means that none of the beetle larvae have been killed. The kill rates determined are entered into Colby's formula.

Spodoptera frugiperda = assay: whole plant or invertebrate
Excerpt: as §1, §2, §3
After the desired time, the kill in % is determined. 100% means that all caterpillars have been killed; 0% means that none of the caterpillars have been killed. The kill rates determined are entered into Colby's formula.

Tetranychus urticae = assay: Tetranychus test (OP-resistant/spray treatment); settings: for pest or weed control at 4 g/ha / Kill rate in % after 6 d: after 6 d
Excerpt: as §4, §5, §1, §2, §3
Discs of bean leaves (Phaseolus vulgaris) infested by all stages of the two-spotted spider mite (Tetranychus urticae) are sprayed with an active ingredient formulation of the desired concentration.
After the desired period of time, the effect in % is determined. 100% means that all of the spider mites have been killed; 0% means that none of the spider mites have been killed.

[1] = Myzus persicae, 144 h, after 6 d, read-out: Kill rate in % after 6 d
[2] = Phaedon cochleariae, 144 h, after 6 d, read-out: Kill rate in % after 6 d
[3] = Spodoptera frugiperda, 144 h, 0.8 g/ha, after 6 d, read-out: Kill rate in % after 6 d
[4] = Spodoptera frugiperda, 144 h, 0.032 g/ha, after 6 d, read-out: Kill rate in % after 6 d
[5] = Phaedon cochleariae, 144 h, 4 g/ha, after 6 d, read-out: Kill rate in % after 6 d
[6] = Spodoptera frugiperda, 144 h, 4 g/ha, after 6 d, read-out: Kill rate in % after 6 d
[7] = Tetranychus urticae, 144 h, applied individually, read-out: Kill rate in % after 6 d

## COc1cccc(C(=O)NN(C(=O)c2cc(C)cc(C)c2)C(C)(C)C)c1C [methoxyfenozide]
Myzus persicae; [1]
  pest or weed control at 4 g/ha: 0%
Phaedon cochleariae; [2]
  pest or weed control at 0.8 g/ha: 0%
Spodoptera frugiperda; [3]
  pest or weed control at 0.8 g/ha: 0%

## CNC(=O)c1cc(Cl)cc(C)c1NC(=O)c1cc(Br)nn1-c1ncccc1Cl [chloranthraniliprole]
Spodoptera frugiperda; [4]
  pest or weed control at 0.032 g/ha: 50%

## CC1(C)[C@H](C(=O)O[C@H](C#N)c2cccc(Oc3ccccc3)c2)[C@@H]1/C=C(\Cl)C(F)(F)F [gamma-cyhalothrin]
Myzus persicae; 0.032 g/ha, after 1 d
  Kill rate in % after 1 d: 0%
Spodoptera frugiperda; 0.032 g/ha
  Kill rate in % after 2 d: 17%
Tetranychus urticae; 0.8 g/ha, after 2 d, applied individually
  Kill rate in % after 2 d: 0%

## FC(F)(F)c1ccc(OCCCOc2c(Cl)cc(OCC=C(Cl)Cl)cc2Cl)nc1 [pyridalyl]
Myzus persicae; Myzus persicae, 24 h, after 1 d, read-out: Kill rate in % after 1 d
  pest or weed control at 4 g/ha: 0%
Phaedon cochleariae; [5]
  pest or weed control at 4 g/ha: 0%
Spodoptera frugiperda; [6]
  pest or weed control at 4 g/ha: 0%

## CCc1nn(C)c(C(=O)NCc2ccc(C(C)(C)C)cc2)c1Cl [tebufenpyrad]
Myzus persicae; Myzus persicae, 24 h, 0.8 g/ha, after 1 d, read-out: Kill rate in % after 1 d
  pest or weed control at 0.8 g/ha: 0%
Myzus persicae; Myzus persicae, 144 h, 0.16 g/ha, after 6 d, read-out: Kill rate in % after 6 d
  pest or weed control at 0.16 g/ha: 0%
Phaedon cochleariae; Phaedon cochleariae, 144 h, 0.16 g/ha, after 6 d, read-out: Kill rate in % after 6 d
  pest or weed control at 0.16 g/ha: 0%
Tetranychus urticae; Tetranychus urticae, 48 h, 0.16 g/ha, after 2 d, applied individually, read-out: Kill rate in % after 2 d
  pest or weed control at 0.16 g/ha: 0%
Tetranychus urticae; [7]
  pest or weed control at 4 g/ha: 40%

## Nc1nc(N)nc(NC2CC2)n1 [cyromazine]
Myzus persicae; Myzus persicae, 24 h, 100 g/ha, after 1 d, read-out: Kill rate in % after 1 d
  pest or weed control at 100 g/ha: 0%
Phaedon cochleariae; [5]
  pest or weed control at 4 g/ha: 0%
Spodoptera frugiperda; [6]
  pest or weed control at 4 g/ha: 0%

## CCC(C)(C)C(=O)OC1=C(c2ccc(Cl)cc2Cl)C(=O)OC12CCCCC2 [spirodiclofen]
Myzus persicae; 20 g/ha, after 1 d
  Kill rate in % after 1 d: 0%
Myzus persicae; 100 g/ha, after 1 d
  Kill rate in % after 1 d: 0%
Phaedon cochleariae; 4 g/ha, after 6 d
  Kill rate in % after 6 d: 0%
Tetranychus urticae; 100 g/ha, after 2 d, applied individually
  Kill rate in % after 2 d: 0%

## Cc1nn(C)c(Oc2ccccc2)c1C=NOCc1ccc(C(=O)OC(C)(C)C)cc1 [fenpyroximate]
Spodoptera frugiperda; 0.8 g/ha
  Kill rate in % after 2 d: 0%
Tetranychus urticae; Tetranychus urticae, 48 h, 0.8 g/ha, after 2 d, applied individually, read-out: Kill rate in % after 2 d
  pest or weed control at 0.8 g/ha: 0%

## COCCOC(=O)C(C#N)(C(=O)c1ccccc1C(F)(F)F)c1ccc(C(C)(C)C)cc1 (centres unmarked) [cyflumetofen]
Phaedon cochleariae; [5]
  pest or weed control at 4 g/ha: 0%
Spodoptera frugiperda; [6]
  pest or weed control at 4 g/ha: 17%

## CNC(=O)Oc1cccc2ccccc12 [carbaryl]
Myzus persicae; Myzus persicae, 24 h, read-out: Kill rate in % after 1 d
  pest or weed control at 500 g/ha: 0%
Spodoptera frugiperda; Spodoptera frugiperda, 144 h, read-out: Kill rate in % after 6 d
  pest or weed control at 4 g/ha: 0%
Tetranychus urticae; Tetranychus urticae, 48 h, read-out: Kill rate in % after 2 d
  pest or weed control at 500 g/ha: 10%
Tetranychus urticae; Tetranychus urticae, 144 h, read-out: Kill rate in % after 6 d
  pest or weed control at 500 g/ha: 20%

## abamectin
Myzus persicae; 0.16 g/ha, after 1 d
  Kill rate in % after 1 d: 0%
Phaedon cochleariae; 0.032 g/ha, after 6 d
  Kill rate in % after 6 d: 0%
Tetranychus urticae; 0.0064 g/ha, applied individually
  Kill rate in % after 6 d: 0%
Tetranychus urticae; 0.032 g/ha, applied individually
  Kill rate in % after 6 d: 80%

## O=C(NC(=O)c1c(F)cccc1F)Nc1ccc(OC(F)(F)C(F)OC(F)(F)F)c(Cl)c1 (centres unmarked) [novaluron]
Phaedon cochleariae; [2]
  pest or weed control at 0.8 g/ha: 0%
Spodoptera frugiperda; [3]
  pest or weed control at 0.8 g/ha: 67%

## CCCSP(=O)(OCC)Oc1ccc(Br)cc1Cl (centres unmarked) [profenophos]
Phaedon cochleariae; 4 g/ha
  Kill rate in % after 2 d: 0%
Phaedon cochleariae; [5]
  pest or weed control at 4 g/ha: 0%
Spodoptera frugiperda; [6]
  pest or weed control at 4 g/ha: 17%

## CCc1ccc(C(=O)NN(C(=O)c2cc(C)cc(C)c2)C(C)(C)C)cc1 [tebufenozide]
Myzus persicae; [1]
  pest or weed control at 4 g/ha: 0%
Phaedon cochleariae; 4 g/ha
  Kill rate in % after 2 d: 0%
Spodoptera frugiperda; Spodoptera frugiperda, 144 h, 0.16 g/ha, after 6 d, read-out: Kill rate in % after 6 d
  pest or weed control at 0.16 g/ha: 0%

## COC(=O)N(C(=O)N1CO[C@@]2(C(=O)OC)Cc3cc(Cl)ccc3C2=N1)c1ccc(OC(F)(F)F)cc1 [indoxacarb]
Myzus persicae; 20 g/ha, after 1 d
  Kill rate in % after 1 d: 0%
Spodoptera frugiperda; 0.8 g/ha
  Kill rate in % after 2 d: 50%

## O=C(NC(=O)c1c(F)cccc1F)Nc1cc(Cl)c(OC(F)(F)C(F)C(F)(F)F)cc1Cl (centres unmarked) [lufenuron]
Spodoptera frugiperda; [3]
  pest or weed control at 0.8 g/ha: 17%
Tetranychus urticae; Tetranychus urticae, 48 h, 100 g/ha, after 2 d, applied individually, read-out: Kill rate in % after 2 d
  pest or weed control at 100 g/ha: 0%

## spinosad
Spodoptera frugiperda; 0.16 g/ha, after 6 d
  Kill rate in % after 6 d: 0%
Tetranychus urticae; 20 g/ha, after 2 d, applied individually
  Kill rate in % after 2 d: 20%

## O=C(NC(=O)c1c(F)cccc1F)Nc1ccc(Oc2ccc(C(F)(F)F)cc2Cl)cc1F [flufenoxuron]
Myzus persicae; Myzus persicae, 144 h, 0.8 g/ha, after 6 d, read-out: Kill rate in % after 6 d
  pest or weed control at 0.8 g/ha: 0%
Spodoptera frugiperda; [3]
  pest or weed control at 0.8 g/ha: 0%

## CC1(C)[C@H](C(=O)O[C@H](C#N)c2cccc(Oc3ccccc3)c2)[C@@H]1/C=C(\Cl)C(F)(F)F [L-cyhalothrin]
Myzus persicae; Myzus persicae, 24 h, 0.16 g/ha, after 1 d, read-out: Kill rate in % after 1 d
  pest or weed control at 0.16 g/ha: 0%
Spodoptera frugiperda; [4]
  pest or weed control at 0.032 g/ha: 0%
Tetranychus urticae; [7]
  pest or weed control at 4 g/ha: 20%

## O=S(=O)(CCC(F)=C(F)F)c1ncc(Cl)s1 [fluensulfone]
Spodoptera frugiperda; 2000 g/ha, after 6 d
  Kill rate in % after 6 d: 0%
Tetranychus urticae; 2000 g/ha, after 2 d, applied individually
  Kill rate in % after 2 d: 0%

## emamectin benzoate
Myzus persicae; 0.16 g/ha, after 1 d
  Kill rate in % after 1 d: 0%
Myzus persicae; 0.8 g/ha, after 1 d
  Kill rate in % after 1 d: 0%
Phaedon cochleariae; 0.032 g/ha, after 6 d
  Kill rate in % after 6 d: 0%
Tetranychus urticae; 0.032 g/ha, after 2 d, applied individually
  Kill rate in % after 2 d: 0%

Source: US20160037775A1, “ACTIVE INGREDIENT COMBINATIONS HAVING INSECTICIDAL AND ACARICIDAL PROPERTIES” (priority 2010, published 2016)
